# Assays:
# [1] = biological target: human P2X3 receptor (Homo sapiens (Human), UniProt P56373); assay: Evaluation of human P2X3 receptor inhibitory activity (ATP-induced Fluo-3 fluorescence, FDSS 3000); assay type: cell-based; conditions: C6BU-1 cell transfected with human P2X3 receptor gene
# Procedure, shortened: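 Human P2X3 inhibition read as ATP-evoked Fluo-3 calcium fluorescence; compound preincubated, then 50 nM ATP solution (concentration as dispensed) added and fluorescence followed 3 min. Response taken as peak-to-baseline fluorescence ratio per well; IC50 derived from concentration–response.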
# [2] = biological target: CYP3A4 (Homo sapiens (Human), UniProt P08684); assay: CYP3A4 fluorescent MBI test; assay type: in vitro ADME; conditions: pre-reaction time 0 or 30 minutes; substrate 7-BFC; CYP3A4 expressed in Escherichia coli
# CYP3A4, sequence (P08684 whole entry): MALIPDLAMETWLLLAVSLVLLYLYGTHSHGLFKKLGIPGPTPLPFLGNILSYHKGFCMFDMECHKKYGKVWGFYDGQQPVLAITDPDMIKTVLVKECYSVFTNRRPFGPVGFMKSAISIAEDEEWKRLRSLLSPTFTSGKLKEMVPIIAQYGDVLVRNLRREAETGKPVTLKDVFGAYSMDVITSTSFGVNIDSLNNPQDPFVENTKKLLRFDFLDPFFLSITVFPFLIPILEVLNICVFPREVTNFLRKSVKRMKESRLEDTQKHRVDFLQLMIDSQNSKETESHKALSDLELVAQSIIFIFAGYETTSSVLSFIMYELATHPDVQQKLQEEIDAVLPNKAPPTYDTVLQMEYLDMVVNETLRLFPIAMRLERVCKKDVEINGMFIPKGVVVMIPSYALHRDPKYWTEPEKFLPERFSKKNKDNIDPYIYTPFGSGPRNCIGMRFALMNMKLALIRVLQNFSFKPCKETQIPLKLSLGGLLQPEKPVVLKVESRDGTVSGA
# Method: The CYP3A4 fluorescent MBI test is a test of investigating enhancement of CYP3A4 inhibition of a compound by a metabolism reaction, and the test is performed using, as CYP3A4 enzyme expressed in Escherichia coli and employing, as an index, a reaction in which 7-benzyloxytrifluoromethylchmarin (BFC) is debenzylated by the CYP3A4 enzyme to produce a metabolite, 7-hydroxytrifluoromethylchmarin (HFC) emitting fluorescent light.
# The reaction conditions were as follows: substrate, 5.6 μmol/L 7-BFC; pre-reaction time, 0 or 30 minutes; reaction time, 15 minutes; reaction temperature, 25° C.
# An enzyme in a K-Pi buffer (pH 7.4) and a test drug solution as a pre-reaction solution were added to a 96-well plate at the composition of the pre-reaction, a part of it was transferred to another 96-well plate so that it was 1/10 diluted by a substrate in a K-Pi buffer, NADPH as a co-factor was added to initiate a reaction as an index (without preincubation) and, after a predetermined time of a reaction, acetonitrile: 0.5 mol/L Tris (trishydroxyaminomethane)=4:1 was added to stop the reaction. In addition, NADPH was added to a remaining preincubation solution to initiate a preincubation (with preincubation) and, after a predetermined time of a preincubation, a part was transferred to another plate so that it was 1/10 diluted with a substrate and a K-Pi buffer to initiate a reaction as an index, After a predetermined time of a reaction, acetonitrile: 0.5 mol/L Tris (trishydroxyaminomethane)=4:1 was added to stop the reaction. For the plate on which each index reaction had been performed, a fluorescent value of 7-HFC which is a metabolite was measured with a fluorescent plate reader. (Ex=420 nm, Em=535 nm).
# Addition of only DMSO which is a solvent dissolving a drug to a reaction system was adopted as a control (100%), remaining activity (%) was calculated at each concentration of a test drug added as the solution, and IC50 was calculated by reverse-presumption by a logistic model using a concentration and an inhibition rate. When a difference between IC50 values is 5 or more, this was defined as (+) and, when the difference is 3 μmol/L or less, this was defined as (−).
# [3] = biological target: CYP2D6 (Homo sapiens (Human), UniProt P10635); assay: CYP inhibition test, dextromethorphan O-demethylation; assay type: in vitro ADME; conditions: pooled human hepatic microsome; 5 μmol/L dextromethorphan; given as 'five kinds'
# CYP2D6, sequence (P10635 whole entry): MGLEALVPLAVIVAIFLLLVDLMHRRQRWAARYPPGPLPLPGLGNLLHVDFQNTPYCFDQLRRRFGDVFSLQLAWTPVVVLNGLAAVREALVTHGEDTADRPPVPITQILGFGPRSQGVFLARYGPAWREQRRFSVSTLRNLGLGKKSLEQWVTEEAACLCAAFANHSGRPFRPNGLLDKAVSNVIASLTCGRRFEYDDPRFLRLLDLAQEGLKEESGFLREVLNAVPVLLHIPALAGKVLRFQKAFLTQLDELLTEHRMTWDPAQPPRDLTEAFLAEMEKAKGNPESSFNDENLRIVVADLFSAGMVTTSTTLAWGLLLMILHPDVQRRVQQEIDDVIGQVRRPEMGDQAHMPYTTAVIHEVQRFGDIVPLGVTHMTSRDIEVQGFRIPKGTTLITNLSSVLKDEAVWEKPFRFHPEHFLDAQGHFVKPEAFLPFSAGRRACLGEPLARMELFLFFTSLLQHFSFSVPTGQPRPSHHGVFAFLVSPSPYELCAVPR
# Method: (§1) Using commercially available pooled human hepatic microsome, and employing, as markers, 7-ethoxyresorufin O-deethylation (CYP1A2), tolbutamide methyl-hydroxylation (CYP2C9), mephenyloin 4′-hydroxylation (CYP2C19), dextromethorphan O-demethylation (CYP2D6), and terfenedine hydroxylation as typical substrate metabolism reactions of human main five ([…] enzyme forms (CYP1A2, 2C9, 2C19, 2D6, 3A4), an inhibitory degree of each metabolite production amount by a test compound was assessed.
# (§2) The reaction conditions were as follows: substrate, 0.5 μmol/L ethoxyresorufin (CYP1A2), 100 μmol/L tolbutamide (CYP2C9), 50 μmol/L S-mephenitoin (CYP2C19), 5 μmol/L dextromethorphan (CYP2D6), 1 μmol/L terfenedine (CYP3A4); reaction time, 15 minutes; reaction temperature, 37° C.; enzyme, pooled human hepatic microsome 0.2 mg protein/mL; test drug concentration, 1.0. 5.0, 10, 20 μmol/L (four points).
# (§3) Each five kinds of substrates, human hepatic microsome, or a test drug in 50 mmol/L Hepes buffer as a reaction solution was added to a 96-well plate at the composition as described above. NADPH, as a cofactor was added to initiate metabolism reactions as markers and, after the incubation at 37° C. for 15 minutes, a methanol/acetonitrile=1/1 (v/v) solution was added to stop the reaction. After the centrifugation at 3000 rpm for 15 minutes, resorufin (CYP1A2 metabolite) in the supernatant was quantified by a fluorescent multilabel counter and tributamide hydroxide (CYP2CP metabolite), mephenyloin 4′ hydroxide (CYP2C19 metabolite), […], and terfenadine alcohol (CYP3A4 metabolite) were quantified by LC/MS/MS.
# (§4) Addition of only DMSO being a solvent dissolving a drug to a reaction system was adopted as a control (100%), remaining activity (%) was calculated at each concentration of a test drug added as the solution and IC50 was calculated by reverse presumption by a logistic model using a concentration and an inhibition rate.
# [4] = Metabolism stability test (pooled human hepatic microsomes); assay type: in vitro ADME; conditions: human liver microsomes 0.5 mg protein/mL; 37° C., 30 minutes; 1 mmol/L NADPH; compound concentration 0.5 μmol/L
# Method: Using commercially available pooled human hepatic microsomes, a test compound was reacted for a constant time, a remaining rate was calculated by comparing a reacted sample and an unreacted sample, thereby, a degree of metabolism in liver was assessed.
# A reaction was performed (oxidative reaction) at 37° C. for 0 minute or 30 minutes in the presence of 1 mmol/L NADPH in 0.2 mL of a buffer (50 mmol/L tris-HCl pH 7.4, 150 mmol/L potassium chloride, 10 mmol/L magnesium chloride) containing 0.5 mg protein/mL of human liver microsomes. After the reaction, 50 μL of the reaction solution was added to 100 μL of a methanol/acetonitrile 1/1 (v/v), mixed and centrifuged at 3000 rpm for 15 minutes. The test compound in the supernatant was quantified by LC/MS/MS, and a remaining amount of the test compound after the reaction was calculated, letting a compound amount at 0 minute reaction time to be 100%.
# [5] = biological target: CYP1A2 (Homo sapiens (Human), UniProt P05177); assay: CYP inhibition test, 7-ethoxyresorufin O-deethylation; assay type: in vitro ADME; conditions: pooled human hepatic microsome; 0.5 μmol/L ethoxyresorufin; given as 'five kinds'
# CYP1A2, sequence (P05177 whole entry): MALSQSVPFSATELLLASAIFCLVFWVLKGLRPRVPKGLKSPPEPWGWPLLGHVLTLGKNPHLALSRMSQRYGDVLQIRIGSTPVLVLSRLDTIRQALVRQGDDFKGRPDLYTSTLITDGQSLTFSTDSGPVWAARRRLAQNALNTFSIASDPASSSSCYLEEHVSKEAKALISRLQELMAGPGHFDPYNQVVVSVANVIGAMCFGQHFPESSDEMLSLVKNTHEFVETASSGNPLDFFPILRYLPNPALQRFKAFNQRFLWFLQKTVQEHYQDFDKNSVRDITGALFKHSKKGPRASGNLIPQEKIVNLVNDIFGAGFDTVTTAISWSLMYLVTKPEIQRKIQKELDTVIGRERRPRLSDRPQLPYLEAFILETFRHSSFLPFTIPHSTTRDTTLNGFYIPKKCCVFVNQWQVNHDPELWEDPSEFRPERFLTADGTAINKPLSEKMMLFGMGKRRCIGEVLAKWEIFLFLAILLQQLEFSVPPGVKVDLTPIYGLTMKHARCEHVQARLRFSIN
# Method: as §1, §2, §3, §4
# [6] = biological target: CYP2C19 (Homo sapiens (Human), UniProt P33261); assay: CYP inhibition test, mephenyloin 4'-hydroxylation; assay type: in vitro ADME; conditions: pooled human hepatic microsome; 50 μmol/L S-mephenitoin; given as 'five kinds'
# CYP2C19, sequence (P33261 whole entry): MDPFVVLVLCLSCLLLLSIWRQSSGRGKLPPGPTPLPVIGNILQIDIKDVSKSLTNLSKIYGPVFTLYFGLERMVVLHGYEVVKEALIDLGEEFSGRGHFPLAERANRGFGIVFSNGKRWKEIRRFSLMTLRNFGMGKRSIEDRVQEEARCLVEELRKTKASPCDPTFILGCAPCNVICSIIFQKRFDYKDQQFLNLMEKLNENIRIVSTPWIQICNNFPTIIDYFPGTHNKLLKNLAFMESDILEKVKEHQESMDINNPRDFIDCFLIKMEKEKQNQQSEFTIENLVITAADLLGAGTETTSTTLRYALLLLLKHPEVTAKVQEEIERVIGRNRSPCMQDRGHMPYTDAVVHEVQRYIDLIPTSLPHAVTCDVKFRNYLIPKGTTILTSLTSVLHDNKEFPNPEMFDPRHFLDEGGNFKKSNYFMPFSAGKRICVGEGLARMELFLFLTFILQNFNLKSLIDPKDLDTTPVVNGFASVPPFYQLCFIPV
# Method: as §1, §2, §3, §4
# human P2X3 receptor, sequence (P56373 whole entry): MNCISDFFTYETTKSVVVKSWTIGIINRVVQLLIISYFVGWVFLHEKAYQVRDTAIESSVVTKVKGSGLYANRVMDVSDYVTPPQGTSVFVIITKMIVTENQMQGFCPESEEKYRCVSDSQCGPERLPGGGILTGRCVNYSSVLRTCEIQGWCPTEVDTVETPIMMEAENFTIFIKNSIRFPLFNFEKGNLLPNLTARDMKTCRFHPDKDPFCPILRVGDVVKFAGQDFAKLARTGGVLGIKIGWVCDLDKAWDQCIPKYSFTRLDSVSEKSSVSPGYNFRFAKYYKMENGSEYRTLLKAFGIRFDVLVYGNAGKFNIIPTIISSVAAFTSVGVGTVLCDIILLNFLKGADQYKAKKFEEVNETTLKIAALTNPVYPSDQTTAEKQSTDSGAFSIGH
smiles,measurement,setting,value
CC(C)Oc1ccc(Nc2cc(=O)n(C[C@H](C)C(=O)O)c(=O)n2Cc2ccc(Cl)cc2)cc1Cl [I-100],IC50,[1],0.009 µM
same,IC50 difference,[2],< 3 µM
same,IC50,[3],> 20 µM
same,remaining rate,[4],101%
same,IC50,[5],> 20 µM
same,IC50,[6],> 20 µM

# — patent publication US9212130B2, “Heterocyclic derivative and pharmaceutical composition comprising the same” (SHIONOGI & CO., LTD., priority 2010, dated 2015)
